The test system of data set [1] is human tumor-free lung tissue explants. The data set can be described thus: Viability of human tumor-free lung explants (LDH release). The note with it: treated lung tissues, 48 h p.i.
Data set [2] relates to influenza A virus (strain A/WSN/33 (H1N1)). The note with it: for IC50: read-out: IC50 IAV (Strain WSN/33 (H1N1)), A549 cells.
Data set [3] concerns the target IAV polymerase (PB1, PB2, PA, NP) (Influenza A virus, UniProt P03427+P03430+P15659). In kind it is cell-based.
Data set [4] addresses viral polymerase complex (PA, PB1, NP, Strep-PB2) (Influenza A virus, UniProt P03427+P03430+P15659). Format: cell-based.
Data set [5] deals with influenza A virus (strain A/WSN/33 (H1N1)) proteins PB1, NP, M1, NS1. Format: cell-based.
A short description of data set [6]: in vitro. The note with it: dog.
Protocol: (§1) A549 and MDCK cells were seeded in 96-well plates and grown overnight. […] Next, 15 µL of sterile water or Triton X-100 10% (CytoSelect^TM LDH Cytotoxicity Assay Kit) were added to each well in DMEM or MEM, for 10 min, at room temperature. Supernatants were collected and stored at −80 °C until used. Supernatants (90 µL) were transferred to clean 96-well plates and 10 µL of LDH Reagent (CytoSelect^TM LDH Cytotoxicity Assay Kit) were added to each sample and incubated for 20 min. Quantification was performed using a spectrophotometer at 405 nm. The concentration of each sample that reduced cell viability by 50% was estimated as CC50.
The subject of data set [7] is influenza A virus (strain A/WSN/33 (H1N1)) RNA transcription. In kind it is cell-based.
The test system of a further data set is Na+/K+-ATPase. Also noted: method as in PMID 30798081. The note with it: cited from earlier work.
The subject of data set [8] is influenza A virus (strain A/WSN/33 (H1N1)). The data set can be described thus: microbe, parasite or virus in culture. The settings on record: A549, 24 h, read-out: IC50 IAV (Strain WSN/33 (H1N1)), A549 cells.
The test system of data set [9] is influenza A virus (A/Panama/2007/1999 (H3N2)).
Data set [10] concerns influenza A virus (strain A/WSN/33 (H1N1)).
The test system is the same in data set [11]. The data set can be described thus: microbe, parasite or virus in culture. The settings on record: MDCK, 24 h, read-out: IC50 IAV (Strain WSN/33 (H1N1)), MDCK cells.
The nature of data set [12]: in vitro. The settings on record: human.
Protocol: as §1
The test system of data set [13] is influenza A virus (A/Panama/2007/1999 (H3N2)). Also noted: method as in PMID 31826721. The settings on record: pre-treatment for 1 h, human lung tissues, IAV A/Panama/2007/1999 (H3N2); cited from earlier work.
Another data set relates to IAV (strain A/PR/8/34). Also noted: method as in PMID 21899996. The note with it: MDCK cells, cited from earlier work.

Converted amounts (≈) assume the structure as drawn. “Also recorded” adds a separate entry of the source. Like-named read-outs stand apart in the source and are kept apart here. Some results are limits rather than exact numbers.

Turning to `C[C@]12CC[C@H](NC(=O)CNCCO)C[C@H]1CC[C@@H]1[C@@H]2CC[C@]2(C)[C@@H](C3=CC(=O)OC3)CC[C@]12O` [C10], in [1], the “tissue integrity / tissue toxicity (LDH release)” value was “did not reduce tissue integrity”. Further, the results for the “reduction of viral titers” value in data set [2] and in data set [9] were greater than 50% and 4 logs, respectively. Further, the IC50 in [2] was 57 ± 2 nM; in data set [8] it was roughly 60 nM; in data set [11], roughly 60 nM. Also, the “decrease of polymerase activity” value in data set [3] is greater than 50%. In addition, the “viral polymerase complex assembly (PA, PB1, NP in complex precipitates)” value in [4] was “interfered”. The “early (NS1, NP, PB1) and late (M1) viral protein expression” value in data set [5] is recorded as “decreased”. The CC50 in the data set “in vitro [6]” and in the data set “in vitro [12]” was greater than 5000 nM throughout. Further, the “viral mRNA levels (NP segment 5, M1 segment 7)” value in [7] is “decreased”. The “Na+/K+-ATPase inhibition” value in the data set with Na+/K+-ATPase is listed as “inhibited”. The “viral replication / viral titers” value in data set [9] is “completely abrogated viral replication; also recorded: below the detection limit”. Moreover, in data set [10], the “fold by which the IC50 of oleandrigenin-β-D-glucosyl (1→4)-β-D-digitalose is higher than that of the compound” value worked out at 19 fold.
`C[C@]12CC[C@H](NC(=O)CO)C[C@H]1CC[C@@H]1[C@@H]2CC[C@]2(C)[C@@H](C3=CC(=O)OC3)CC[C@]12O` [C11, 3β-(hydroxyacetyl)amino-3-deoxydigitoxigenin]: the “tissue integrity / tissue toxicity (LDH release)” value in [1] was greater than 2 fold over control. Also, the “reduction of viral titers” value in data set [2] was greater than 50%. Also, the IC50 is 62 nM in data set [2]; roughly 60 nM in data set [8]; 66 ± 6 nM in data set [10] (read-out: IC50 IAV (Strain WSN/33 (H1N1)), MDCK cells); roughly 60 nM in data set [11]. In data set [3], the “decrease of polymerase activity” value was “approximately 40%”. The “reduction of polymerase activity” value in [3] is reported as “no significant reduction”. For the same compound, the “viral polymerase complex assembly (PA, PB1, NP in complex precipitates)” value in [4] was “interfered”. For the same compound, the “early (NS1, NP, PB1) and late (M1) viral protein expression” value in data set [5] was “decreased”. Moreover, the CC50 in the data set “in vitro [6]” and in the data set “in vitro [12]” was greater than 5000 nM in each case. The “viral mRNA levels (NP segment 5, M1 segment 7)” value in data set [7] is reported as “decreased”. The “Na+/K+-ATPase inhibition” value with Na+/K+-ATPase is “inhibited”. For the same compound, in [9], the “viral replication / viral titers” value is “abolished viral replication; also recorded: below the detection limit”. Moreover, the “fold by which the IC50 of oleandrigenin-β-D-glucosyl (1→4)-β-D-digitalose is higher than that of the compound” value in [10] is on record as 17 fold.
As for `C[C@]12CC[C@H](O)C[C@H]1CC[C@@H]1[C@@H]2CC[C@]2(C)[C@@H](C3=CC(=O)OC3)CC[C@]12O` [Digitoxigenin, digitoxigenin, reference compound], the “SI (CC50/IC50), A549 cells” value in data set [2] is given as 92.366. The “reduction of viral titers” value in data set [2] is given as greater than 50%. The CC50 at 24 h in “in vitro [6]” and in the data set “in vitro [12]” was greater than 5000 nM each time. The results for the IC50 in [8] and in [11] were 70 ± 10 nM and 72 ± 5 nM, respectively. Also, the “SI (CC50/IC50), MDCK cells” value in data set [10] came to 88.052.
For `CO/C1=C\C(C)=C\[C@@H](C)[C@@H](O)[C@@H](C)C/C(C)=C/C=C/[C@H](OC)[C@@H]([C@@H](C)[C@@H](O)[C@H](C)[C@@]2(O)C[C@@H](O)[C@H](C)[C@@H](C(C)C)O2)OC1=O` [bafilomycin A], the “IAV replication in lung tissues” value in data set [13] was “abolished IAV replication”.
With `COC1C(O)C(OC2CCC3(C)C(CCC4C3CCC3(C)C(C5=CC(=O)OC5)C(OC(C)=O)CC43O)C2)OC(C)C1OC1OC(CO)C(O)C(O)C1O` [oleandrigenin-β-D-glucosyl (1→4)-β-D-digitalose], the IC50 in the data set with IAV (strain A/PR/8/34) (strain A/PR/8/34, converted from µg/mL, read-out: IC50, IAV titer reduction) is 1140 nM. In addition, the “IC50, IAV titer reduction” value in the data set with IAV (strain A/PR/8/34) (strain A/PR/8/34) is listed as 0.86 µg/mL (≈ 1.14 µM).

The values are drawn from publication PMC7587960 (Molecules, 2020).
